Like-named read-outs stand apart in the source and are kept apart here.
Tests used:
[1] = system: HIV 3B; experiment: Anti-HIV testing: protection of MT4 cells from virus induced cytopathic effect (MTT uptake); format: cell-based, HIV-1; details: for Antiviral Activity: % Protection: MT4 cells, HIV 3B, 5 days, 37° C.
Protocol: (§1) The sample, considered of adequate quality for antiviral testing is assayed as follows:
(§2) The assays are carried out in 96 well (microtitre) panels using the MT4 cell line, infe3cted with IOTCID50 of HIV 3B. The antiviral activity and cytotoxicity of each compound is assayed simultaneously. Three compounds are screened on each panel. Each compound is tested at 100.0, 10.0, 1.0 and 0.1 μM, unless otherwise stated. AZT is included in each assay as a positive control at 10.0, 1.0, 0.1 and 0.01 μM.
(§3) The antiviral activity (in infected cells) and cytotoxicity (to uninfected cells) of each compound is determined by measuring the number of viable cells remaining after 5 days incubation of 37° C. and comparing them with infected or uninfected controls. The number of viable cells is determined by the addition of the tetrazolium dye MTT. […] Following MTT addition, the cells are solubilised with acidified isopropanol and the extent of MTT conversion is measured spectrophotometrically.
Antiviral activity is apparent through the ability of compounds to protect the cells from virus induced cytopathic effect. The result is reported as the percentage of cells protected at a given drug concentration.

[2] = Cytotoxicity to uninfected MT4 cells (MTT uptake); format: cell-based; details: human
Protocol: as §1, §2, §3

Compound: Cc1cn([C@H]2C[C@H](N=[N+]=[N-])[C@@H](COP(=O)(OC[C@H]3O[C@@H](n4cc(C)c(=O)[nH]c4=O)C[C@@H]3N=[N+]=[N-])Oc3ccc(S(C)(=O)=O)cc3)O2)c(=O)[nH]c1=O [BTG 1704, 4-(methylsulphonyl)phenyl bis (3'-azido thymidin-5'-yl) phosphate]
- Antiviral Activity: % Protection ([1]; 0.001 μM): 9%
- Antiviral Activity: % Protection ([1]; 0.01 μM): 21%
- Antiviral Activity: % Protection ([1]; 0.1 μM): 91%
- Antiviral Activity: % Protection ([1]; 1.0 μM): 91%
- Antiviral Activity: % Protection ([1]; 10 μM): 79%
- Antiviral Activity: % Protection ([1]; 100 μM): 13%
- protection of MT4 cells from HIV-1 cytopathic effect ([1]; concentrations between 0.1 and 10 μM): significant protection
- MCC at 120 h ([2]; estimated, not a quantitative test for cytotoxicity, read-out: toxic concentration of the drug): ~100 µM
- MCC at 120 h ([2]; uninfected MT4 cells, 5 days, 37° C., read-out: MTC): 100 µM
